Experimental data as given in PubChem BioAssay AID1919003 (Molecular Pharmacology Branch, DTP, NCI, 2023).

System: 786-0 complex spheroids with HUVEC/MSC, growth % test/control
Experiment: Anticancer human tumor 786-0 cell line growth inhibition [AhR];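 note: compound exposure lasted seven days before the read-out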
Settings: for IC50: curve of first compound; for viability, T/C: stronger effect = lower value
Source text: Multicellular complex tumor spheroid response to aryl hydrocarbon receptor antagonists in combination with a variety of drugs and investigational agents in selected tumor cell lines
The current study was undertaken to assess response to aryl hydrocarbon receptor antagonists in combination with standard-of-care drugs and investigational agents in solid tumor complex spheroid models. Complex spheroids include a stromal component modeled by human endothelial cells (HUVEC) and fibroblasts modeled by human mesenchymal stem cells (MSCs). The concentration ranges selected for each drug and investigational agent were based upon clinically achievable concentrations if the clinical Cmax of the agent was known.
Compounds. The drugs and investigational agents: BAY 2416964 (NSC825713), GNF351 (NSC835774), CH-223191 (NSC835775), CPI-455 (NSC825282), aza-TdCyd (NSC777586), decitabine (NSC127716), belinostat (NSC758774), entinostat (NSC756642), pevonedistat (NSC761192), tazemetostat (NSC777109), talazoparib (NSC765396), olaparib (NSC753686), selinexor (NSC780203), nedisertib (M3814, NSC802822), bortezomib (NSC756655), venetoclax (NSC766270), doxorubicin (NSC123127), elimusertib (BAY189344, NSC800525), ceralasertib (AZD6738, NSC777638), TAK-243 (NSC785004), alisertib (NSC759677), etoposide (NSC141540), topotecan (NSC609699), eribulin (NSC707389), gemcitabine (NSC613327), carboplatin (NSC241240), cisplatin (NSC119875), and SN-38 (NSC673596) were obtained from the National Cancer Institute (NCI) Developmental Therapeutics Program Chemical Repository (32). The FDA-approved anticancer drug set is available from the Developmental Therapeutics Program at https://dtp.cancer.gov/organization/dscb/obtaining/available plates.htm. […] The stock solutions were prepared in dimethyl sulfoxide (DMSO, Sigma-Aldrich, St. Louis, MO, cat. D2650), except for the platinum compounds which were prepared in saline (Quality Biological, Gaithersburg, MD, cat. 114-055-101), at 800-fold the tested concentration and stored at -70 degrees C prior to their use. All drugs and investigational agents were tested over a range starting from a high concentration at or near the clinical Cmax and decreasing in half-log increments. If the clinical Cmax for an agent had not been determined, the highest concentration tested was 10 microM (Table 1).
Cell Culture. All cells were maintained in an incubator at 37 degrees C and 5% CO2 with 95% humidity. The PDC lines were cultured according to standard operating procedures established by the NCI PDMR (https://pdmr.cancer.gov). Briefly, all PDCs were thawed and cultured in Matrigel-coated flasks prepared with a working solution of 1X Ham's F-12 nutrient mix, without supplementation (Invitrogen, Waltham, MA, cat. 11765054), 100 U/mL penicillin-streptomycin (Invitrogen, cat. 15140122), and 2.5% Matrigel (Corning Inc., Corning, NY, cat. 354248) for the first three passages. All PDCs were cultured in complete DMEM/F-12 media containing advanced DMEM/F-12 (Invitrogen, cat. 12634028), 4.9% defined fetal bovine serum, heat inactivated (HyClone Laboratories Inc., Logan, UT, cat. SH30070.03HI), 389 ng/mL hydrocortisone (Sigma-Aldrich, cat. H4001), 9.7 ng/mL human EGF recombinant protein (Invitrogen, cat. PHG0313), 23.4 microg/mL adenine (Sigma-Aldrich, cat. A2786), 97.3 U/mL penicillin-streptomycin (Invitrogen, cat. 15140122), 1.9 mM L-glutamine (Invitrogen, cat. 25030081), and 9.7 microM Y-27632 dihydrochloride (Tocris Bioscience, Bristol, United Kingdom, cat. 1254). The PDCs were cultured in complete DMEM/F12 media without 10 microM Y-27632 dihydrochloride for at least two passages prior to the screen. The established cell lines NCI-H1341 and […] were cultured in DMEM/F-12, HEPES (Invitrogen, cat. 11330032), 5% defined fetal bovine serum (HyClone Laboratories Inc., cat. SH30070.03), ITS premix universal culture supplement [insulin (5 microg/mL), transferrin (5 microg/mL), and selenious acid (5 ng/mL)] […]

[1] = second compound 0.1 µM, first compound 0.0316 µM
[2] = second compound 0.1 µM, first compound 0.1 µM
[3] = second compound 0.1 µM, first compound 0.316 µM
[4] = second compound 0.1 µM, first compound 1 µM
[5] = second compound 0.1 µM, first compound 3.16 µM
[6] = second compound 0.1 µM, first compound 10 µM
[7] = second compound 0.316 µM, first compound 0.0316 µM
[8] = second compound 0.316 µM, first compound 0.1 µM
[9] = second compound 0.316 µM, first compound 0.316 µM
[10] = second compound 0.316 µM, first compound 1 µM
[11] = second compound 0.316 µM, first compound 3.16 µM
[12] = second compound 0.316 µM, first compound 10 µM
[13] = second compound 1 µM, first compound 0.0316 µM
[14] = second compound 1 µM, first compound 0.1 µM
[15] = second compound 1 µM, first compound 0.316 µM
[16] = second compound 1 µM, first compound 1 µM
[17] = second compound 1 µM, first compound 3.16 µM
[18] = second compound 1 µM, first compound 10 µM
[19] = second compound 3.16 µM, first compound 0.0316 µM
[20] = second compound 3.16 µM, first compound 0.1 µM
[21] = second compound 3.16 µM, first compound 0.316 µM
[22] = second compound 3.16 µM, first compound 1 µM
[23] = second compound 3.16 µM, first compound 3.16 µM
[24] = second compound 3.16 µM, first compound 10 µM
[25] = second compound 10 µM, first compound 0.0316 µM
[26] = second compound 10 µM, first compound 0.1 µM
[27] = second compound 10 µM, first compound 0.316 µM
[28] = second compound 10 µM, first compound 1 µM
[29] = second compound 10 µM, first compound 3.16 µM
[30] = second compound 10 µM, first compound 10 µM

| SMILES | IC50 (second compound 0.1 µM) | IC50 (second compound 0.316 µM) | IC50 (second compound 1 µM) | IC50 (second compound 3.16 µM) | IC50 (second compound 10 µM) | viability, T/C [1] | viability, T/C [2] | viability, T/C [3] | viability, T/C [4] | viability, T/C [7] | viability, T/C [8] | viability, T/C [9] | viability, T/C [10] | viability, T/C [13] | viability, T/C [14] | viability, T/C [15] | viability, T/C [16] | viability, T/C [19] | viability, T/C [20] | viability, T/C [21] | other results |
| --- | --- | --- | --- | --- | --- | --- | --- | --- | --- | --- | --- | --- | --- | --- | --- | --- | --- | --- | --- | --- | --- |
| COc1cc(C2c3cc4c(cc3C(OC3OC5COC(C)OC5C(O)C3O)C3COC(=O)C23)OCO4)cc(OC)c1O (stereo not given) + CC(CO)NC(=O)c1cc(-c2ccc(Cl)cc2)nn(-c2cnn(C)c2)c1=O | 597 nM | 517 nM | 422 nM | 232 nM | 255 nM | 89.7% | 82% | 74.2% | 29.7% | 66% | 72.5% | 69.1% | 24.9% | 79.1% | 94.9% | 58.7% | 20.2% | 83.7% | 65.6% | 44.8% | viability, T/C [5]: 18.8%; viability, T/C [6]: 5.08%; viability, T/C [11]: 13.1%; viability, T/C [12]: 6.05%; viability, T/C [17]: 16%; viability, T/C [18]: 4.53%; viability, T/C [22]: 24.4%; viability, T/C [23]: 17.5%; viability, T/C [24]: 5.67%; viability, T/C [25]: 88.3%; viability, T/C [26]: 78.8%; viability, T/C [27]: 40.2%; viability, T/C [28]: 22.2%; viability, T/C [29]: 13.9%; viability, T/C [30]: 3.72% |
| COc1cccc2c1C(=O)c1c(O)c3c(c(O)c1C2=O)CC(O)(C(=O)CO)CC3OC1CC(N)C(O)C(C)O1 (stereo not given) + CC(CO)NC(=O)c1cc(-c2ccc(Cl)cc2)nn(-c2cnn(C)c2)c1=O | 43 nM | < 31.6 nM | 45.5 nM | < 31.6 nM | < 31.6 nM | 54.4% | 37.9% | 12.5% | 2.51% | 46.7% | 40% | 14.3% | 3.11% | 54.3% | 40.6% | 11.6% | 3.23% | 47.4% | 42.3% | 10.9% | viability, T/C [5]: 0.63%; viability, T/C [6]: 0.56%; viability, T/C [11]: 0.25%; viability, T/C [12]: 0.6%; viability, T/C [17]: 0.45%; viability, T/C [18]: 0.49%; viability, T/C [22]: 3.69%; viability, T/C [23]: 0.34%; viability, T/C [24]: 0.41%; viability, T/C [25]: 44.9%; viability, T/C [26]: 37.5%; viability, T/C [27]: 11.2%; viability, T/C [28]: 1.48%; viability, T/C [29]: 0.72%; viability, T/C [30]: 0.86% |
| Nc1ncn(C2CC(O)C(CO)O2)c(=O)n1 (stereo not given) + CC(CO)NC(=O)c1cc(-c2ccc(Cl)cc2)nn(-c2cnn(C)c2)c1=O | > 1000 nM | > 1000 nM | > 1000 nM | > 1000 nM | > 1000 nM | 72.4% | 75.3% | 75.3% | 62% | 75.3% | 62.1% | 57.9% | 55% | 88.6% | 72.1% | 65.3% | 61% | 93.8% | 91.2% | 77.7% | viability, T/C (second compound 0.1 µM, first compound 0.00316 µM): 96.2%; viability, T/C (second compound 0.1 µM, first compound 0.01 µM): 79.7%; viability, T/C (second compound 0.316 µM, first compound 0.00316 µM): 69%; viability, T/C (second compound 0.316 µM, first compound 0.01 µM): 66%; viability, T/C (second compound 1 µM, first compound 0.00316 µM): 82.4%; viability, T/C (second compound 1 µM, first compound 0.01 µM): 109%; viability, T/C (second compound 3.16 µM, first compound 0.00316 µM): 108%; viability, T/C (second compound 3.16 µM, first compound 0.01 µM): 94.1%; viability, T/C [22]: 64.3%; viability, T/C (second compound 10 µM, first compound 0.00316 µM): 116%; viability, T/C (second compound 10 µM, first compound 0.01 µM): 121%; viability, T/C [25]: 122%; viability, T/C [26]: 117%; viability, T/C [27]: 109%; viability, T/C [28]: 73.1% |
